Reference: patent US10696687B2, “Pyrazolo fused heterocyclic compounds as ERK inhibitors” (CHANGZHOU JIEKAI PHARMATECH CO., LTD., priority 2015, dated 2020)

Tested on: Colon cancer cells (Colo205 cell line)
Assay: Colo205 cell proliferation assay (MTT assay, WST-8 readout)
Format: cell-based
Details: Homo sapiens, COLO 205, 72 hours incubation, absorbance at 450 nm, read-out: Colo 205 cell growth inhibition IC50
Procedure: Compounds disclosed herein were tested for the inhibition of ERK2 by a Colo205 cell proliferation assay commonly known as MTT assay. In this assay, a complete media was prepared by adding 10% fetal bovine serum to RPMI-1640 medium (Life technology). Colon cancer cells (Colo205 cell line) were added to each of 88 wells of a 96 well plate at a seeding density of 5,000 cells/well/90 μL. The cells were allowed to attach to the plate by incubating at 37° C. for 24 hours. The compound was dissolved in DMSO (SIGMA). A solution of test compound was prepared in complete media by serial dilution to obtain the following concentrations: 500 μM, 150 μM, 50 μM, 15 μM, 5 μM, 1.5 μM, 0.5 μM, 0.15 μM and 0.05 μM. The test compound solution (10 μL) was added to each of 80 cell-containing wells. The final concentrations of the compound were following: 50 μM, 15 μM, 5 μM, 1.5 μM, 0.5 μM, 0.15 μM, 0.05 μM, 0.015 μM and 0.005 μM. The final concentration of DMSO is 0.5%. To the 8 remaining cell-containing wells, only complete media (containing 0.5% DMSO) was added to form a control group in order to measure maximal proliferation. To the remaining 8 empty wells, complete media was added to for a vehicle control group in order to measure background. The plates were incubated at 37° C. for 72 hours. 10 μL WST-8 solution (DOJINDO, Cell Counting KIT-8) was added to each well. The plates were further incubated at 37° C. for 2 hours, and then read for the absorbance using a microplate reader at 450 nm.

| IC50 [µM] | SMILES |
| --- | --- |
| 0.052 to 10 | Cc1cc(-c2n[nH]c3ncc(C(=O)N[C@@H]4CN(C)C[C@H]4c4ccccc4Cl)cc23)ccn1 [Compound 33, N-((3S,4R)-4-(2-chlorophenyl)-1-methylpyrrolidin-3-yl)-3-(2-methylpyridin-4-yl)-1H-pyrazolo[3,4-b]pyridine-5-carboxamide] |
| 0.052 to 10 | Cc1cc(-c2n[nH]c3sc(C(=O)NC(c4ccc(F)cc4)C(C)(C)O)cc23)ccn1 (stereo not shown) [Compound 55, N-(1-(4-fluorophenyl)-2-hydroxy-2-methylpropyl)-3-(2-methylpyridin-4-yl)-1H-thieno[2,3-c]pyrazole-5-carboxamide] |
| 0.052 to 10 | COc1cc(-c2n[nH]c3ncc(C(=O)N[C@H]4CN(C)C[C@@H]4c4ccccc4C(F)(F)F)cc23)ccn1 (relative stereo) [Compound 13, trans-3-(2-methoxypyridin-4-yl)-N-(1-methyl-4-(2-(trifluoromethyl)phenyl)pyrrolidin-3-yl)-1H-pyrazolo[3,4-b]pyridine-5-carboxamide] |
| 0.052 to 10 | Cc1cc(-c2n[nH]c3ncc(C(=O)N[C@H](CO)c4cccc(Cl)c4)cc23)ccn1 [Compound 1, (S)-N-(1-(3-chlorophenyl)-2-hydroxyethyl)-3-(2-methylpyridin-4-yl)-1H-pyrazolo[3,4-b]pyridine-5-carboxamide] |
| 0.052 to 10 | Cc1cc(-c2n[nH]c3ncc(C(=O)N[C@@H]4C[C@H]4c4ccccc4)cc23)ccn1 (relative stereo) [Compound 36, trans-3-(2-methylpyridin-4-yl)-N-(2-phenylcyclopropyl)-1H-pyrazolo[3,4-b]pyridine-5-carboxamide] |
| 0.052 to 10 | Cc1cc(-c2n[nH]c3ncc(C(=O)N[C@H]4CN(C)C[C@@H]4c4ccc(F)cc4F)cc23)ccn1 (relative stereo) [Compound 25, trans-N-(-4-(2,4-difluorophenyl)-1-methylpyrrolidin-3-yl)-3-(2-methylpyridin-4-yl)-1H-pyrazolo[3,4-b]pyridine-5-carboxamide] |
| 0.052 to 10 | Cc1cc(-c2n[nH]c3ncc(C(=O)N[C@@H]4CN(C)C[C@H]4c4ccccc4C(F)(F)F)cc23)ccn1 (single isomer, unassigned) [Compound 14] |
| 0.052 to 10 | COCCN1C[C@@H](NC(=O)c2cnc3[nH]nc(-c4ccnc(C)c4)c3c2)[C@H](c2ccccc2C(F)(F)F)C1 [Compound 22, N-((3S,4R)-1-(2-methoxyethyl)-4-(2-(trifluoromethyl)phenyl)pyrrolidin-3-yl)-3-(2-methylpyridin-4-yl)-1H-pyrazolo[3,4-b]pyridine-5-carboxamide] |
| 0.052 to 10 | Cc1cc(-c2n[nH]c3ncc(C(=O)N[C@@H]4COC[C@H]4c4ccccc4)cc23)ccn1 [Compound 35, trans-3-(2-methylpyridin-4-yl)-N-(4-phenyltetrahydrofuran-3-yl)-1H-pyrazolo[3,4-b]pyridine-5-carboxamide] |
| 0.052 to 10 | Cc1cc(-c2n[nH]c3ncc(C(=O)N[C@H]4CCC[C@@H]4c4ccccc4)cc23)ccn1 [Compound 32] |
| 0.052 to 10 | Cc1cc(-c2n[nH]c3ncc(C(=O)N[C@H]4CN(C)C[C@@H]4c4cccc(Cl)c4)cc23)ccn1 (relative stereo) [Compound 10, trans-N-(4-(3-chlorophenyl)-1-methylpyrrolidin-3-yl)-3-(2-methylpyridin-4-yl)-1H-pyrazolo[3,4-b]pyridine-5-carboxamide] |
| 0.052 to 10 | Cc1cc(-c2n[nH]c3ncc(NC(=O)N[C@@H](C)c4ccccc4)cc23)ccn1 [Compound 4, (S)-1-(3-(2-methylpyridin-4-yl)-1H-pyrazolo[3,4-b]pyridin-5-yl)-3-(1-phenylethyl)urea] |
| 0.052 to 10 | Cc1cc(-c2n[nH]c3ccc(C(=O)N[C@@H]4CN(C)C[C@H]4c4ccccc4Cl)cc23)ccn1 [Compound 37, N-((3S,4R)-4-(2-chlorophenyl)-1-methylpyrrolidin-3-yl)-3-(2-methylpyridin-4-yl)-1H-indazole-5-carboxamide] |
